Data published in patent US20180344725A1, “QUINOLONE CHALCONE COMPOUNDS AND USES THEREOF” (priority 2015, published 2018).

Legend:
H69AR = test: SRB-based cytotoxicity assay; assay type: cell-based, human; details: for Resistance (fold): H69AR versus SW-1271; for IC50: Homo sapiens, H69AR, multidrug-resistant
Description: 1845B5 and MCF-10A non-cancer breast cell lines were cultured in DME/F12 medium supplemented with 10% fetal bovine serum, antibiotics and growth factors. […] The human small cell lung carcinoma H69 cell line and its multidrug-resistant MRP1-overexpressing isogenic H69AR cell line were purchased from ATCC. […] H69 cells grow as large multi-cell aggregates, making it difficult to accurately count cell numbers. […] The IL-6 dependent bortezomib-resistant ANBL6-BR cell line was further supplemented with 1 ng/ml of IL-6. The MCF10AT1 and MCF10CA1a cell lines are isogenic to the MCF10A cell line, and obtained from Dr. Valerie Weaver at the Center for Bioengineering and Tissue Regeneration, UCSF, CA, USA. […] The drug-resistant cells were cultured in the absence of drug for at least one passage before carrying out experiments. All cells were maintained in a humidified incubator at 37° C. […] Cell line authentication was performed using short tandem repeat (STR) profiling. […] Some wells were treated with 100 μl of 10% trichloroacetic acid (TCA) as a negative control and sham (medium with dimethyl sulfoxide; DMSO) treated cells were used as a positive control. […] TCA was removed and cells were washed with cold tap water, and plate was air-dried, followed by addition of 50 μl of 0.4% SRB staining solution to each well. After 30 minutes incubation, SRB staining solution was removed. Cells were washed with 1% acetic acid solution, and then washed with tap water to remove unbound staining solution, followed by air-drying. 200 μl of 10 mM (pH10.5) trizma base buffer was added to each well to solubilise macromolecules. […] Cell growth (inhibition) was calculated by the following formula: % cells proliferation=[(AT-CT)/(ST-CT)]×100 wherein AT=absorbance of treated cells, CT=absorbance of negative control cells, and ST=absorbance of sham treated cells. […] CI values were determined from four independent experiments.

Liver mitotic cells = assay type: in vivo, mice; details: 30 days; 10 mg paclitaxel, 30 mg CTR, or paclitaxel (5 mg) + CTR (15 mg)
Description: ATH490 athymic mice were treated as indicated in the listed concentrations for 30 days (FIG. 45A), and then the liver cell proliferation analyzed by examining the number of mitotic cells (white arrows in FIG. 45A). “Tax” denotes paclitaxel. The numbers in the brackets in (FIG. 45B) are mg/kg body weight. […] However, this small increase is considered normal as the AST/ALT ratio is <3 (Table 14).

Kidney histology (H&E) = assay type: in vivo, mice; details: day 30; paclitaxel 10 mg/kg; CTR 30 mg/kg; or paclitaxel 5 mg/kg + CTR 15 mg/kg
Description: Animals were monitored for food and water consumption every day, and their body weights and tumor volumes were measured twice per week. Tumor volumes were measured with a digital caliper and were determined by using the following formula: ½ length×width^2. Blood samples were collected via cardiac puncture and processed further for ALT and AST measurements. The animals were then immediately euthanized by carbon dioxide. Tumors and vital organs (spleen, kidney, liver and lung) were collected and fixed in 10% buffered formalin at 4° C. overnight before being processed for paraffin embedding. The paraffin-embedded blocks were then cut into 4-5 μm thick sections. Each section of tumors and organs was stained with hematoxylin and eosin (H&E).
Changes in body weight, hemoglobin (Hb) and the amount and ratio of alanine transaminase (ALT)/aspartate transaminase (AST) were used to measure toxic effects. In addition, vital organs (liver, spleen, kidney and lung) were analyzed by […] after they were harvested, fixed, processed, paraffin-embedded, sectioned, and stained as described above.
ATH490 mice were treated as described in Table 11. At day 30, kidneys were harvested, stained with H&E, and observed under a Zeiss EPI-fluorescent microscope (40× objective).

SMILES | Resistance (fold) (H69AR) | IC50 (H69AR) [nM] | mitotic index in the liver (Liver mitotic cells) | effects on the kidney (Kidney histology (H&E))
COc1ccccc1C(=O)/C=C/c1cc2ccccc2[nH]c1=O [CTR-17, (E)-3-(3-(2-Methoxyphenyl)-3-oxoprop-1-enyl)quinolin-2(1H)-one] | 0.45 | 520 ± 100 | small increases in the mitotic index | generally did not cause any notable ill-effects to the kidney
COc1ccc2[nH]c(=O)c(/C=C/C(=O)c3ccccc3OC)cc2c1 [CTR-20, (E)-6-Methoxy-3-(3-(2-methoxyphenyl)-3-oxoprop-1-enyl) quinolin-2(1H)-one] | 0.13 | 130 ± 10 | small increases in the mitotic index | generally did not cause any notable ill-effects to the kidney
CC(=O)O[C@H]1C(=O)[C@@]2(C)[C@H]([C@H](OC(=O)c3ccccc3)[C@]3(O)C[C@H](OC(=O)[C@H](O)[C@@H](NC(=O)c4ccccc4)c4ccccc4)C(C)=C1C3(C)C)[C@]1(OC(C)=O)CO[C@@H]1C[C@@H]2O [Paclitaxel, reference compound] | 2.44 |  | small increases in the mitotic index | approximately 1 out of 5 mice showed renal abnormalities
